Laboratory results reported in publication PMC12692169, “Identification of Novel TAT-I24-Related Peptides with Antiviral Activities” (International Journal of Molecular Sciences, 2025).
Residues, ends and D or L forms follow the SMILES beside them.

Key:
[1] = tested on: Baculovirus/HEK293; conditions: 24 h
[2] = tested on: red blood cells (RBC); assay: RBC swelling (enlarged pellet after centrifugation); conditions: 1 h; for RBC swelling: peptides diluted in PBS (absence of serum), up to 20 µM, pellet size after centrifugation; for RBC swelling in the presence of serum: peptides diluted in 10% human/donor serum
[3] = tested on: mouse cytomegalovirus (MCMV)/NIH/3T3 cells; conditions: 72 h

| SMILES | IC50 [1] | RBC swelling [2] | IC50 [3] | RBC swelling in the presence of serum [2] |
| --- | --- | --- | --- | --- |
| CC(C)C[C@H](NC(=O)[C@H](CO)NC(=O)[C@H](C)NC(=O)[C@H](Cc1ccc(O)cc1)NC(=O)[C@H](Cc1ccccc1)NC(=O)[C@H](C)NC(=O)[C@H](CC(C)C)NC(=O)[C@H](CCC(N)=O)NC(=O)[C@@H]1CCCN1C(=O)[C@@H]1CCCN1C(=O)[C@H](CCCNC(=N)N)NC(=O)[C@H](CCCNC(=N)N)NC(=O)[C@H](CCCNC(=N)N)NC(=O)[C@H](CCC(N)=O)NC(=O)[C@H](CCCNC(=N)N)NC(=O)[C@H](CCCNC(=N)N)NC(=O)[C@H](CCCCN)NC(=O)[C@H](CCCCN)NC(=O)[C@H](CCCNC(=N)N)NC(=O)CN)C(=O)N[C@@H](C)C(=O)N[C@@H](Cc1ccccc1)C(=O)O [TAT-M219] (H-GRKKRRQRRRPPQLAFYASLAF-OH) | 96 nM | did not cause RBC swelling in the absence of serum even at 20 µM | 7380 nM | – |
| CC(C)C[C@H](NC(=O)[C@H](CS)NC(=O)[C@H](CCC(N)=O)NC(=O)[C@@H]1CCCN1C(=O)[C@@H]1CCCN1C(=O)[C@H](CCCNC(=N)N)NC(=O)[C@H](CCCNC(=N)N)NC(=O)[C@H](CCCNC(=N)N)NC(=O)[C@H](CCC(N)=O)NC(=O)[C@H](CCCNC(=N)N)NC(=O)[C@H](CCCNC(=N)N)NC(=O)[C@H](CCCCN)NC(=O)[C@H](CCCCN)NC(=O)[C@H](CCCNC(=N)N)NC(=O)CN)C(=O)N[C@@H](C)C(=O)N[C@@H](Cc1ccccc1)C(=O)N[C@@H](Cc1ccc(O)cc1)C(=O)N[C@@H](C)C(=O)N[C@@H](CS)C(=O)N[C@@H](Cc1ccccc1)C(=O)N[C@@H](CS)C(=O)O [TAT-I24] (H-GRKKRRQRRRPPQCLAFYACFC-OH) | 16 nM | caused RBC swelling at higher concentrations | 809 nM | not in the presence of donor serum |
| CC(C)C[C@H](NC(=O)[C@H](CS)NC(=O)[C@H](CCC(N)=O)NC(=O)[C@@H]1CCCN1C(=O)[C@@H]1CCCN1C(=O)[C@H](CCCNC(=N)N)NC(=O)[C@H](CCCNC(=N)N)NC(=O)[C@H](CCCNC(=N)N)NC(=O)[C@H](CCC(N)=O)NC(=O)[C@H](CCCNC(=N)N)NC(=O)[C@H](CCCNC(=N)N)NC(=O)[C@H](CCCCN)NC(=O)[C@H](CCCCN)NC(=O)[C@H](CCCNC(=N)N)NC(=O)CN)C(=O)N[C@@H](C)C(=O)N[C@H](C(=O)N[C@@H](Cc1c[nH]cn1)C(=O)N[C@@H](CC(=O)O)C(=O)N[C@@H](CS)C(=O)N[C@@H](Cc1ccccc1)C(=O)N[C@H](C(=O)O)C(C)C)C(C)C [TAT-M22] (H-GRKKRRQRRRPPQCLAVHDCFV-OH; N-terminus and C-terminus assumed) | 245 nM | did not cause RBC swelling in the absence of serum even at 20 µM | 11800 nM | – |
| CC(C)C[C@H](NC(=O)[C@H](CS)NC(=O)[C@H](CCC(N)=O)NC(=O)[C@@H]1CCCN1C(=O)[C@@H]1CCCN1C(=O)[C@H](CCCNC(=N)N)NC(=O)[C@H](CCCNC(=N)N)NC(=O)[C@H](CCCNC(=N)N)NC(=O)[C@H](CCC(N)=O)NC(=O)[C@H](CCCNC(=N)N)NC(=O)[C@H](CCCNC(=N)N)NC(=O)[C@H](CCCCN)NC(=O)[C@H](CCCCN)NC(=O)[C@H](CCCNC(=N)N)NC(=O)CN)C(=O)N[C@@H](C)C(=O)N[C@H](C(=O)N[C@@H](Cc1ccc(O)cc1)C(=O)N[C@@H](CC(=O)O)C(=O)N[C@@H](CS)C(=O)N[C@@H](Cc1ccccc1)C(=O)N[C@H](C(=O)O)C(C)C)C(C)C [TAT-M17] (H-GRKKRRQRRRPPQCLAVYDCFV-OH; N-terminus and C-terminus assumed) | 102 nM | did not cause RBC swelling in the absence of serum even at 20 µM | 5850 nM | – |
| CC(C)C[C@H](NC(=O)[C@H](CS)NC(=O)[C@H](C)NC(=O)[C@H](Cc1ccc(O)cc1)NC(=O)[C@H](Cc1ccccc1)NC(=O)[C@H](C)NC(=O)[C@H](CC(C)C)NC(=O)[C@H](CS)NC(=O)[C@@H]1CCCN1C(=O)[C@H](CCCNC(=N)N)NC(=O)[C@H](CCCNC(=N)N)NC(=O)[C@H](CCCNC(=N)N)NC(=O)[C@H](CCC(N)=O)NC(=O)[C@H](CCCNC(=N)N)NC(=O)[C@H](CCCNC(=N)N)NC(=O)[C@H](CCCCN)NC(=O)[C@H](CCCCN)NC(=O)[C@H](CCCNC(=N)N)NC(=O)CN)C(=O)N[C@@H](C)C(=O)N[C@@H](Cc1ccccc1)C(=O)N[C@@H](Cc1ccc(O)cc1)C(=O)N[C@@H](C)C(=O)N[C@@H](CS)C(=O)O [TAT-M212] (H-GRKKRRQRRRPCLAFYACLAFYAC-OH) | 619 nM | caused RBC swelling over a broad concentration range comparable to TAT-M214 | 18200 nM | – |
| CC[C@H](C)[C@H](NC(=O)[C@H](C)NC(=O)[C@H](CC(C)C)NC(=O)[C@H](CS)NC(=O)[C@H](CCC(N)=O)NC(=O)[C@@H]1CCCN1C(=O)[C@@H]1CCCN1C(=O)[C@H](CCCNC(=N)N)NC(=O)[C@H](CCCNC(=N)N)NC(=O)[C@H](CCCNC(=N)N)NC(=O)[C@H](CCC(N)=O)NC(=O)[C@H](CCCNC(=N)N)NC(=O)[C@H](CCCNC(=N)N)NC(=O)[C@H](CCCCN)NC(=O)[C@H](CCCCN)NC(=O)[C@H](CCCNC(=N)N)NC(=O)CN)C(=O)N[C@@H](Cc1ccc(O)cc1)C(=O)N[C@@H](CC(=O)O)C(=O)N[C@@H](CS)C(=O)N[C@@H](Cc1ccccc1)C(=O)N[C@@H](CS)C(=O)O [TAT-M13] (H-GRKKRRQRRRPPQCLAIYDCFC-OH) | 31 nM | caused RBC swelling at higher concentrations | 1220 nM | – |
| CC(C)[C@H](NC(=O)[C@H](CO)NC(=O)[C@H](CCC(N)=O)NC(=O)[C@@H]1CCCN1C(=O)[C@@H]1CCCN1C(=O)[C@H](CCCNC(=N)N)NC(=O)[C@H](CCCNC(=N)N)NC(=O)[C@H](CCCNC(=N)N)NC(=O)[C@H](CCC(N)=O)NC(=O)[C@H](CCCNC(=N)N)NC(=O)[C@H](CCCNC(=N)N)NC(=O)[C@H](CCCCN)NC(=O)[C@H](CCCCN)NC(=O)[C@H](CCCNC(=N)N)NC(=O)CN)C(=O)N[C@@H](Cc1ccccc1)C(=O)N[C@@H](Cc1ccc(O)cc1)C(=O)N[C@@H](C)C(=O)N[C@@H](CS)C(=O)N[C@@H](Cc1ccccc1)C(=O)N[C@@H](C)C(=O)N[C@@H](CS)C(=O)O [TAT-De1] (H-GRKKRRQRRRPPQSVFYACFAC-OH) | 37 nM | less effect on RBC swelling | 1610 nM | – |
| CC(C)C[C@H](NC(=O)[C@H](CS)NC(=O)[C@H](C)NC(=O)[C@H](Cc1ccc(O)cc1)NC(=O)[C@H](Cc1ccccc1)NC(=O)[C@H](C)NC(=O)[C@H](CC(C)C)NC(=O)[C@H](CCC(N)=O)NC(=O)[C@@H]1CCCN1C(=O)[C@@H]1CCCN1C(=O)[C@H](CCCNC(=N)N)NC(=O)[C@H](CCCNC(=N)N)NC(=O)[C@H](CCCNC(=N)N)NC(=O)[C@H](CCC(N)=O)NC(=O)[C@H](CCCNC(=N)N)NC(=O)[C@H](CCCNC(=N)N)NC(=O)[C@H](CCCCN)NC(=O)[C@H](CCCCN)NC(=O)[C@H](CCCNC(=N)N)NC(=O)CN)C(=O)N[C@@H](C)C(=O)N[C@@H](Cc1ccccc1)C(=O)O [TAT-M40] (H-GRKKRRQRRRPPQLAFYACLAF-OH) | 21 nM | caused RBC swelling at higher concentrations | 1850 nM | – |
| CC(C)C[C@H](NC(=O)[C@H](Cc1ccccc1)NC(=O)[C@H](CS)NC(=O)[C@H](Cc1ccccc1)NC(=O)[C@@H]1CCCN1C(=O)[C@H](CO)NC(=O)[C@H](CCC(N)=O)NC(=O)[C@@H]1CCCN1C(=O)[C@@H]1CCCN1C(=O)[C@H](CCCNC(=N)N)NC(=O)[C@H](CCCNC(=N)N)NC(=O)[C@H](CCCNC(=N)N)NC(=O)[C@H](CCC(N)=O)NC(=O)[C@H](CCCNC(=N)N)NC(=O)[C@H](CCCNC(=N)N)NC(=O)[C@H](CCCCN)NC(=O)[C@H](CCCCN)NC(=O)[C@H](CCCNC(=N)N)NC(=O)CN)C(=O)N[C@@H](C)C(=O)N[C@@H](Cc1ccccc1)C(=O)N[C@@H](CS)C(=O)N[C@@H](Cc1ccccc1)C(=O)O [TAT-T7] (H-GRKKRRQRRRPPQSPFCFLAFCF-OH; N-terminus and C-terminus assumed) | 17 nM | caused RBC swelling at higher concentrations | 1130 nM | not in the presence of donor serum |
